Marks after values point to notes of the source that are not given here.

We go through two compounds from PMC8769378, “Underlining the Importance of Peripheral Protic Functional Groups to Enhance the Proton Exchange of Gd-Based MRI Contrast Agents” (Inorganic Chemistry, 2021).

The nature of data set [1]: Conditional stability constant pGd. To be noted: pGd = −log[Gd]free, [Gd^3+] = 1 μM, [L] = 10 μM, pH = 7.4; calculated from the constants. The data set is classed as physicochemical.
A short description of data set [2]: Longitudinal relaxivity r1 and relaxivity vs pH profiles. The data set is classed as physicochemical. The procedure:
The longitudinal relaxivity values (r1) for GdL1 and GdL2, at 20 MHz (0.47 T), 298 K, and pH 7.4, are 4.7 and 5.1 mM^–1 s^–1, respectively. These are typical values of the clinical MRI contrast agents, i.e., low-molecular-weight q = 1 Gd^III chelates that tumble rapidly in solution.[1],[2] In particular, these values compare well with the r1 reported for GdHPDO3A[24] and other HPDO3A-like complexes such as GdHPDO3MA[25] or the series of Gd-hydroxypropylamide-DO3A (HPADO3A, Scheme 1)[7] complexes measured at the same experimental conditions.
At pH >3, the r1 values of GdL2 decrease with the increase of pH from 6.6 mM^–1 s^–1 to reach a plateau of 5.1 mM^–1 s^–1 around pH = 7.5. A further increase of the pH results in the slight increase of r1 reaching a maximum around pH = 9.5. Finally, at pH >9.5, another small decrease in r1 is observed. On the other hand, in the case of GdL1, the r1 values are independent from the pH in the range 4.0–7.5, whereas at pH >8.0, r1 increases up to 5.2 mM^–1 s^–1. The r1 values of GdL1 were measured in the pH range 4–10 in order to avoid the hydrolysis of the methyl ester. […] Then, the overall relaxivity, r1, is given by eq 1: [drawing 1] 1 where r1^is, r1^os, and r1^pr are the relaxivity components due to the inner and outersphere water molecules and the −OH group, respectively. r1^pr can be expressed as follows:[26]−[28] [drawing 2] 2
Proton relaxation measurements (1/T1) and the resulting 1/T1 NMRD profiles were measured on a fast-field cycling (FFC) Stelar SmarTracer relaxometer over a continuum of magnetic field strengths from 0.000 24 to 0.25 T (corresponding to 0.01–10 MHz proton Larmor frequencies). The relaxometer operates under computer control with an absolute uncertainty in 1/T1 of ±1%. […] Furthermore, the real temperature inside the probe head was additionally monitored by a Fluke 52 k/j digital thermometer (Fluke, Zürich, Switzerland). The gadolinium concentration was determined by measuring the bulk magnetic susceptibility shifts of the t-BuOH ^1H NMR signal. Additional data in the 20–120 MHz frequency range were obtained with a high field relaxometer (Stelar) equipped with the HTS-110 3T metrology cryogen-free superconducting magnet. […] The pH-dependent relaxivity measurements of GdL1 and GdL2 complexes were carried out by direct titration of the samples (GdL2, 3.0 < pH < 12.5; GdL1, 4 < pH < 10). The pH was adjusted by the stepwise addition of concentrated NaOH or HCl solution. Calculations were performed with the computer program Micromath Scientist, version 2.0 (Salt Lake City, UT).

Data set [3] can be described thus: Acid-assisted dissociation kinetics of Gd^III complexes followed by ^1H NMR relaxometry.
From the text: In order to investigate the kinetic inertness of the Gd^III complex, the dissociation reactions of GdL2 were followed by ^1H NMR relaxometry (21 MHz and 298 K) in the presence of large acid excess ([HCl] = 0.01–1.0 M) to guarantee the pseudo-first-order kinetic conditions.
The kinetic inertness of the GdL2 was characterized by the rates of the dissociation reactions taking place in 0.01–1.0 M HCl solution. The dissociation reactions of the GdL2 were followed by measuring the longitudinal relaxation time of H2O protons (T1) with a Stelar relaxometer connected to a Bruker WP80 NMR electromagnet adapted to variable-field measurements (15–80 MHz proton Larmor frequency). The temperature was controlled with a Stelar VTC-91 airflow heater equipped with a calibrated copper–constantan thermocouple (uncertainty of ±0.1 °C). Measures were carried out at 21 MHz and 25 °C. The longitudinal relaxation time (T1) was measured with the “inversion recovery” method (180° – τ – 90°) by using 16 different τ values with a typical 90° pulse width of 6.5 μs, 4 scans. The measurements were performed with a 1 mM solution of the GdL2 complex. The relaxivity values were given as r1 = 1/T1p + 1/T1w where T1p and T1w are the relaxation times of the bulk water protons in the presence and absence of GdL2. The pseudo-first-order rate constants (kd) were calculated by fitting the relaxation rate (r1 = 1/T1p) data to eq 4. […] 4 where rr and rv are the relaxivity values of the reactants and the product (Gd^3+: r1p = 12.85 (2) mM^–1 s^–1, 21 MHz, 25 °C) and rt is the measured relaxivity at reaction time t. The temperature was maintained at 25 °C, and the ionic strength of the solutions was kept constant at [H^+] ≤ 0.15 M, [HCl] + [NaCl] = 0.15 M. The calculation of the kinetic parameters was performed by the fitting of the absorbance–time and relaxation rate–time data pairs with the Micromath Scientist computer program (version 2.0, Salt Lake City, UT).
Kinetic inertness of GdL2
In order to investigate the kinetic inertness of GdL2, the dissociation reactions of GdL2 were followed
by 1H-NMR relaxometry in the presence of large acid excess ([HCl]= 0.01 – 1.0 M) to guarantee the
pseudo-first-order kinetic conditions. The R1obs values as a function of time for the dissociation
In the presence of HCl excess, the dissociation of GdL2 can be treated as a pseudo-first-order process
and the rate of the reaction can be expressed by Eq. (S7)
where kd is a pseudo-first-order rate constant, [GdL]t and [GdL]tot are the concentrations of the GdL
species at time t and the total concentration of the complex, respectively. The rates of the dissociation
reactions were determined at different concentrations of HCl ([HCl]=0.01 – 1.0 M).
The proton assisted dissociation
of GdL2 might occur by the equilibrium formation of a protonated *Gd(H2L2) intermediate (Eq.
(S8)), which dissociates spontaneously (Eq. (S9)).
Gd(HL2) + H Gd(H2L2) (S8)

Turning to `O=C(O)CN1CCN(CC(=O)O)CCN(C[C@@H](O)C(=O)O)CCN(CC(=O)O)CC1` [L2, (R)2,2′,2″-(10-(2-Carboxy-2-hydroxyethyl)-1,4,7,10-tetraazacyclododecane-1,4,7-triyl) Triacetic Acid], the pGd in data set [1] was 16.87 ^h.

As for `O=C([O-])CN1CCN(CC(=O)[O-])CCN(CC(O)C(=O)O)CCN(CC(=O)[O-])CC1.[Gd+3]` (centres unmarked) [GdL2], in data set [2] (20 MHz (0.47 T), 298 K, pH 7.4), the “longitudinal relaxivity r1” value stood at 5.1 mM^–1 s^–1. In addition, in data set [2] (around pH = 7.5, 21 MHz, 298 K, 0.15 M NaCl), the r1 plateau was determined as 5.1 mM^–1 s^–1. Also, the “relaxivity increase by acid-catalyzed proton exchange” value in data set [2] (pH <6) is “ca. 30%”. The “r1 at the acidic start of the pH profile” value in data set [2] (pH about 3, 21 MHz, 298 K, 0.15 M NaCl) was determined as 6.6 mM^–1 s^–1. Further, in data set [3] (calculated from acid-assisted dissociation only, pH = 7.4, 298 K, comparators from literature constants), the “kd at pH = 7.4” value is recorded as 9.01 × 10^–12 s^–1. Moreover, the “k1 (acid-catalyzed dissociation rate constant)” value in data set [3] (k1 = kGdH2L × K^HGd(HL), [HCl] = 0.01–1.0 M, 298 K) is reported as “(2.3 ± 0.1) × 10^–4 M^–1 s^–1”. Besides, the “K^HGdL” value in data set [3] (protonation constant of GdHL from kinetic data, 298 K) is 0.5 ± 0.1 (GdHL) M^–1.
